Source: publication PMC7096398, “Oxytocin Receptors Regulate Social Preference in Zebrafish” (Scientific Reports, 2020)
“Also recorded” adds a separate entry of the source.

Molecular target: T1, Avpr1aa (Danio rerio, UniProt A0A8M1P1H3)
T1 sequence (A0A8M1P1H3 1-379): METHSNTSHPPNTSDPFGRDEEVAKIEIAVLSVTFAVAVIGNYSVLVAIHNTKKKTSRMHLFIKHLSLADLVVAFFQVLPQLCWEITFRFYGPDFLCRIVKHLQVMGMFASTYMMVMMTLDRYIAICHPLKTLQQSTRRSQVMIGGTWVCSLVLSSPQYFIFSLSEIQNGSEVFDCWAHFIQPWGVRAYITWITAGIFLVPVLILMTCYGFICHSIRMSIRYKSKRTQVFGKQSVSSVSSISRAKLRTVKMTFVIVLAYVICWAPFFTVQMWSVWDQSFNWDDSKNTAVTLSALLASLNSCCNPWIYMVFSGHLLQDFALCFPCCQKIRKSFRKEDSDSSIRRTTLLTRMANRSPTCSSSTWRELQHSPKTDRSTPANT
Experiment: Inositol phosphate accumulation assay, antagonism of 1 μM zVP at Avpr1aa
Assay type: cell-based, zebrafish
Conditions: stimulated with agonist; antagonist up to 1 μM
Experimental: The receptor constructs were ordered from GeneScript and subcloned into a pcDNA3.1/CT-GFP-TOPO vector. The coding sequences of the GenBank entries NM_001199370.1 (oxtr), NM_001199369.1 (oxtrl), NM_001301114.1 (avpr1aa), and NM_001297676.1 (avpr1ab) were used for synthesis. The stop codons were removed, and an additional […] was added to facilitate hybrid protein expression with GFP in frame from the vector. The GCCACC Kozak sequence was inserted before the start codons. After transformation of the plasmid constructs into TOP10 competent cells (Thermo Fisher Scientific), the Maxiprep (Thermo Fisher Scientific) method was used to amplify the plasmids for transfection.
The Inositol phosphate accumulation assay was performed according to previous descriptions to measure the potency of different ligands for zebrafish different oxytocin related receptors. Each receptor construct was transfected into HEK293 cells using Lipofectamine 2000 (Thermo Fisher Scientific). Myo2-^3H-inositol (PerkinElmer) at 3 μCi/mL was added the day after transfection. […] Samples were mixed with OptiPhase HiSafe (PerkinElmer Waltham, MA, USA) and ^3H radioactivity was measured with a Tri-Carb 2910TR liquid scintillation counter (PerkinElmer Waltham, MA, USA). […]

## Cc1ccccc1N1CCN(S(=O)(=O)C[C@]23CC[C@H](C[C@@H]2NC(=O)[C@@H](N)CCS(C)(=O)=O)C3(C)C)CC1 [L-368,899]
  Antagonism at Avpr1aa, in words: did not block the response; also recorded: without reducing the effect of the peptide agonist
